Results: ChEMBL document CHEMBL1149398, “Pyrrolizidine esters and amides as 5-HT4 receptor agonists and antagonists” (J Med Chem, 2006)

Key:
[1] = biological target: T1, Serotonin 3 (5-HT3) receptor (Rattus norvegicus, UniProt P35563+Q9JJ16); assay: Displacement of [3H]GR65630 from 5HT3 receptor in brain cortex from Wistar rat; format: tissue-based
T1 sequence (P35563 whole entry): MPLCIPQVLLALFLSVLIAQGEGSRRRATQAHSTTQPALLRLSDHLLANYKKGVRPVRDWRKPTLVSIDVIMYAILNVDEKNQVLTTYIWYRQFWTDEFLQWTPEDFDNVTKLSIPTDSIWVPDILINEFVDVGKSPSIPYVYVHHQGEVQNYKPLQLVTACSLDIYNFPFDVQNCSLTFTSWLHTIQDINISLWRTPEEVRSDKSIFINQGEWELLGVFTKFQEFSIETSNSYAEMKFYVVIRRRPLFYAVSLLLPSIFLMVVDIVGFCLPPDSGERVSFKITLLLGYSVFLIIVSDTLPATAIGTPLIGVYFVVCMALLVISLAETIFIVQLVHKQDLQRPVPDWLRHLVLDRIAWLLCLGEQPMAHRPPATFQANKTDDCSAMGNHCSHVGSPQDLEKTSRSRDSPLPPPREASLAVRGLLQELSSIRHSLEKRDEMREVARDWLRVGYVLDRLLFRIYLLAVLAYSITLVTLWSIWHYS
T1 sequence (Q9JJ16 whole entry): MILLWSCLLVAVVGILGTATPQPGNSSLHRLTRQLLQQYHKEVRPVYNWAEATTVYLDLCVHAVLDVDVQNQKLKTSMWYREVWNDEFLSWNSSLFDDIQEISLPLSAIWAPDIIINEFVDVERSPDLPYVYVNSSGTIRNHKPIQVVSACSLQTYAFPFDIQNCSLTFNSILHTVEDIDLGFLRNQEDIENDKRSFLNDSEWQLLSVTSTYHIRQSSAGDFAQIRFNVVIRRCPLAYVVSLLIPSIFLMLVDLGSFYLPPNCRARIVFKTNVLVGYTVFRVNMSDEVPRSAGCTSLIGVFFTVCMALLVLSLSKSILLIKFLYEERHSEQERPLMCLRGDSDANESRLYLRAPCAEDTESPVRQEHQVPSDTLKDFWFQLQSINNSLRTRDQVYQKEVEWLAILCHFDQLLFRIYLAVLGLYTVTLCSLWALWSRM

[2] = biological target: T2, 5-hydroxytryptamine receptor 4 (Rattus norvegicus, UniProt Q62758); assay: Antagonism at 5HT4 receptor in rat tunica muscularis mucosa; format: functional, tissue-based; conditions: read-out: pA2 (converted)
T2 sequence (Q62758 whole entry): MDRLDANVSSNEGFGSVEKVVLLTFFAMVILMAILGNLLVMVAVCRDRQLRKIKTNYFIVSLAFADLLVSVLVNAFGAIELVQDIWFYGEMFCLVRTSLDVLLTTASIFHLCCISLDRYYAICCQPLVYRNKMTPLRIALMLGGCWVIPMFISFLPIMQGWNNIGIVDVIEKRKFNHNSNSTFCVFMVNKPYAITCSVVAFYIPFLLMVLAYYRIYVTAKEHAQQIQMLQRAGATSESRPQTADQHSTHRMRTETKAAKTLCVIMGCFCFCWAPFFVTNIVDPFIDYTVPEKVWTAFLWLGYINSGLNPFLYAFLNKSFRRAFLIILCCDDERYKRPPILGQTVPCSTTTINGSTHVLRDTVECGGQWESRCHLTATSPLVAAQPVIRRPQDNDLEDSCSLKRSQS

[3] = biological target: T3, Adrenergic receptor alpha-1 (Homo sapiens, UniProt P35348+P25100+P35368); assay: Binding affinity to adrenergic alpha-1 receptor; format: protein assay
T3 sequence (P35348 whole entry): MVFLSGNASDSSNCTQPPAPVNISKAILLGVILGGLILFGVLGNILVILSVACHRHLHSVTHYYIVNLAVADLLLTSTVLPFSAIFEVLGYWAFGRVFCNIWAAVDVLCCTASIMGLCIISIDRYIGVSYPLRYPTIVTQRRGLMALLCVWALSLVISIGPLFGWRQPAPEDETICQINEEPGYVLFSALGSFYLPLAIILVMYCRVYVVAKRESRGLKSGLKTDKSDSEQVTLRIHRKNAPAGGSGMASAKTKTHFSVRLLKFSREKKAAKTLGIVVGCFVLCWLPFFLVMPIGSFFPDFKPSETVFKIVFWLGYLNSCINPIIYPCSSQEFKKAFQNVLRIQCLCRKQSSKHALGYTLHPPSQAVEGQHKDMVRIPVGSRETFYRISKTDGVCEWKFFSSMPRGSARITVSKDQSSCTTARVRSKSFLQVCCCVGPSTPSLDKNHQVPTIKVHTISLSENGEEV
T3 sequence (P25100 whole entry): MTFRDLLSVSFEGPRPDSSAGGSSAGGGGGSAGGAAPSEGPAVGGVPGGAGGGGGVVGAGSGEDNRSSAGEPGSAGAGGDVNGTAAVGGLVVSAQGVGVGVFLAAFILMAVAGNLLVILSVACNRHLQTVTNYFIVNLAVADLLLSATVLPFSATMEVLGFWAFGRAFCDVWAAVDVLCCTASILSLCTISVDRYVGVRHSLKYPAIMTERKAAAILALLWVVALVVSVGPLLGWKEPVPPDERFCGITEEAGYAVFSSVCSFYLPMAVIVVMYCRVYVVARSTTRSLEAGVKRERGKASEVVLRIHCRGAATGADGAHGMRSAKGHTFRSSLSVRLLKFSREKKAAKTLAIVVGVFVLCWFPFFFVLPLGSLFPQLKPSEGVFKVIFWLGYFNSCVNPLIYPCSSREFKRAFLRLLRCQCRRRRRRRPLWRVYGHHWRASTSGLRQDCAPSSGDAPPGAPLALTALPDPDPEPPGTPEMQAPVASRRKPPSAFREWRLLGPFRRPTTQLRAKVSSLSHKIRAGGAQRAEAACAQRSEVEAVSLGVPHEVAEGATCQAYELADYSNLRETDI
T3 sequence (P35368 whole entry): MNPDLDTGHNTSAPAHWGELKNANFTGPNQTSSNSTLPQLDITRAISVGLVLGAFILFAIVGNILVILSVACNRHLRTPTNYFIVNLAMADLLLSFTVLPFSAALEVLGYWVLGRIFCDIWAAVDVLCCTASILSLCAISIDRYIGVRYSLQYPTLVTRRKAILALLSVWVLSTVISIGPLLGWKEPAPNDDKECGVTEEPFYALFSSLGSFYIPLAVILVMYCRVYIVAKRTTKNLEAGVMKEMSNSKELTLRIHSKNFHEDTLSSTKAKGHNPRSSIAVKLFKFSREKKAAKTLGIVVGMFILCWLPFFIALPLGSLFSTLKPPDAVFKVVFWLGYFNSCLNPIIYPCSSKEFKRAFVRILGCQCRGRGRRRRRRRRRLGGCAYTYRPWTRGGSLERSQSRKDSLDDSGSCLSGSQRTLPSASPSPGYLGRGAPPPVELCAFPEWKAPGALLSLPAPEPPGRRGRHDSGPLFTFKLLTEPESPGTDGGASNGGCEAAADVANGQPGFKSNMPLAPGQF

Salmonella typhi [4] = assay: Mutagenic activity in a GLP study using Salmonella Typhimurium TA97 in presence of S9 fraction at 7.2-3600 ug/plate; format: toxicity, organism-based; conditions: salmonella enterica subsp. enterica […]
Canis familiaris = assay: Effect on solid gastric emptying in iv dosed dog; format: functional; conditions: Canis lupus familiaris, Stomach
Salmonella typhi [5] = assay: Mutagenic activity in a GLP study using Salmonella Typhimurium TA1535 in presence of S9 fraction at 7.2-3600 ug/plate; format: toxicity, organism-based; conditions: salmonella enterica subsp. enterica […]
Salmonella typhi [6] = assay: Mutagenic activity in a GLP study using Salmonella Typhimurium TA98 in presence of S9 fraction at 7.2-3600 ug/plate; format: toxicity, organism-based; conditions: salmonella enterica subsp. enterica […]
Salmonella typhi [7] = assay: Mutagenic activity in a GLP study using Salmonella Typhimurium TA100 in presence of S9 fraction at 7.2-3600 ug/plate; format: toxicity, organism-based; conditions: salmonella enterica subsp. enterica […]
[8] = biological target: T4, Serotonin 3 receptor (5HT3) (Mus musculus) (UniProt Q9JHJ5+P23979); assay: Antagonism at 5HT3 receptor in mice by von Bezold-Jarisch reflex inhibition at 10 mg/kg, ip; format: functional, organism-based; set-up: dose 10 mg/kg
T4 sequence (P23979 whole entry, looked up): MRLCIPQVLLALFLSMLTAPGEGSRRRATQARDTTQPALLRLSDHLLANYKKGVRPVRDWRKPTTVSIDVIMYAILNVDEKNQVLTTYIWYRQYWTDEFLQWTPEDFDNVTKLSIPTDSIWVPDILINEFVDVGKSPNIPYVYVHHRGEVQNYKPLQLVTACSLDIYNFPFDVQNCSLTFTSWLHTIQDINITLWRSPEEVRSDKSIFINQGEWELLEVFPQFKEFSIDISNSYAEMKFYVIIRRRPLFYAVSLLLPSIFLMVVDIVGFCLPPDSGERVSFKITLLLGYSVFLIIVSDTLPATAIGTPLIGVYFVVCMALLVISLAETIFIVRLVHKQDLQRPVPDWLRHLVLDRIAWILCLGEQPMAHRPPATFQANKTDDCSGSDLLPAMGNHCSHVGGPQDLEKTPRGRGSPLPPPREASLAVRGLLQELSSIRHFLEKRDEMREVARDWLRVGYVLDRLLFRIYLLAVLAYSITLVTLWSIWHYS
T4 sequence (Q9JHJ5 whole entry, looked up): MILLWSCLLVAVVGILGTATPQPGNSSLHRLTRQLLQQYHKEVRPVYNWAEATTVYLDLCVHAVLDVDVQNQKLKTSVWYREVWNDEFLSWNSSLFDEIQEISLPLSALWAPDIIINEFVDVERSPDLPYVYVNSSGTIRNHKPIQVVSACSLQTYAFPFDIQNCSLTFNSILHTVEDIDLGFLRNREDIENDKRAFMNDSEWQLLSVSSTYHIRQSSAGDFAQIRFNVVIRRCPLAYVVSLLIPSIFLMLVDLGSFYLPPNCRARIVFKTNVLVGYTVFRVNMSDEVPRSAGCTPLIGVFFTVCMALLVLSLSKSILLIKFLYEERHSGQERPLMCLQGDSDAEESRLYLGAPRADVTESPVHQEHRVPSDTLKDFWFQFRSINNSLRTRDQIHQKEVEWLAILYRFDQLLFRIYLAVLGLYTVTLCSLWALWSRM

[9] = biological target: T4, Serotonin 3 receptor (5HT3) (Mus musculus); assay: Antagonism at 5HT3 receptor in mice by von Bezold-Jarisch reflex inhibition at 3 mg/kg, ip; format: functional, organism-based; set-up: dose 3 mg/kg
[10] = biological target: T2, 5-hydroxytryptamine receptor 4; assay: Agonism at 5HT4 receptor in rat tunica muscularis mucosa; format: functional

SMILES: O=C(OC[C@@H]1CCN2CCC[C@@H]12)c1[nH]nc2ccccc12 (single isomer, unassigned)
- Ki [1]: 135 nM
- Kb [2]: 3.31 nM
- IC50 [3]: > 10000 nM

SMILES: COc1cc(N)c(Cl)cc1C(=O)N[C@@H]1C2CC3CN(C2)CC31 (some centres undefined)
- Ki [1]: 1.2 nM
- IC50 [3]: > 10000 nM

SMILES: Cn1nc(C(=O)OC[C@@H]2CCN3CCC[C@@H]23)c2ccccc21 (single isomer, unassigned)
- Ki [1]: 20 nM
- Kb [2]: 2.75 nM
- IC50 [3]: > 10000 nM

SMILES: O=C(OC[C@@H]1CCN2CCC[C@@H]12)c1c[nH]c2ccccc12
- Ki [1]: 5 nM
- Kb [2]: 1.17 nM
- IC50 [3]: > 10000 nM

SMILES: COc1cc(N)c(Cl)cc1C(=O)NC[C@@H]1CCN2CCC[C@@H]12
- Activity (Salmonella typhi [4]): Active
- ED50 (Canis familiaris): 1 µg/kg
- Activity (Salmonella typhi [5]): Active
- Activity (Salmonella typhi [6]): Active
- Activity (Salmonella typhi [7]): Active
- inhibition [8]: 87%
- IC50 [3]: > 10000 nM
- inhibition [9]: 57%
- EC50 [10]: 16.5 nM

SMILES: O=C(NC[C@@H]1CCN2CCC[C@@H]12)c1cc(Cl)cn2ccnc12
- Ki [1]: 259 nM
- Kb [2]: 7.41 nM
- IC50 [3]: > 10000 nM
- EC50 [10]: > 10000 nM
